According to PMC12281424, “A Rac-specific competitive inhibitor of guanine nucleotide binding reduces metastasis in triple-negative breast cancer” (Cell Reports Medicine, 2025):

Legend:
NIH/3T3 cell migration = assay: 1D cell migration (CYTOO plates); type: cell-based; details: 10^-5 M
Procedure: NIH3T3cells (1000/well) were seeded in a 96 well plate with […] fibronectin stripes (CytooPlates Motility, CYTOO) in medium with 1% SVF and allowed to spread for 4 h before capturing time-lapse images for 24 h (image/10 min) on a Widefield Leica DMI 6000B drove with Metamorph software. Cells speed was measured with ImageJ software.
Supplementary Fig. 3: Example of one pharmacophore model used for virtual screening. (a) The pharmacophore model shown was created based on RAC1 (grey) and NSC23766 (orange) interaction. The pharmacophore model is formed by two hydrogenbond acceptor(HBA)features,one orientedtowardsthe hydroxylgroup of Ser71 (S71) and the other towards the amine group of Gln74 (Q74), one hydrogen bond donor (HBD) feature pointed to the oxygenatom of Leu70 (L70) and two hydrophobic features (HY) located on certain carbon atoms of NSC23766 and facing residues Val36 (V36), Ala59 (A59), Tyr64 (Y64) and Leu67 (L67). The spheres correspond to locationconstraint. […] (b) Impact of different screening molecules (10^-5 M) on NIH/3T3 cell adhesion (xCELLingence Real-time cellanalysis, Agilent), migration (CYTOO Mobility plates) and proliferation (xCELLingence Real-time cell analysis, Agilent) .The level of RAC activation is determinedby the detection of RAC-GTP (pull-down assay) in NIH/3T3 cell treated with EGF (10 ng/mL) and the differentmolecules and normalize to the level of RAC activity measuredin the presenceof the reference RAC inhibitor EHT1864.
Supplementary Fig. 4: A41 inhibits RAC-dependent cell functions. (a) Representative records of single NIH/3T3 cell migration on micropatterned fibronectin lines (CYTOO Mobility plates) in the absence (Control)and presenceA41 at 10^-5 M (left panel) and corresponding quantification of migration speed (right panel) (scale bar: 20µm). […] (b) Typical curves showing the cell index representing the adhesion of NIH/3T3 fibroblast (xCELLingence Real-time cell analysis, Agilent) under control condition (Control) and pre-treated with 10 µM A41 or NSC23766 (left panel) and corresponding quantification of cell adhesion speed (right panel). […]

TA1535 = assay: Ames fluctuation test (5th group); type: cell-based
Description: Data S3. Ames-fluctuation assay-A41.
Test Concentration Count Positive Significance Fisher Exact Test

Histamine H2 = Histamine H2 (Homo sapiens, UniProt P25021); assay: Safety screen; type: binding
Sequence of Histamine H2 (P25021 whole entry): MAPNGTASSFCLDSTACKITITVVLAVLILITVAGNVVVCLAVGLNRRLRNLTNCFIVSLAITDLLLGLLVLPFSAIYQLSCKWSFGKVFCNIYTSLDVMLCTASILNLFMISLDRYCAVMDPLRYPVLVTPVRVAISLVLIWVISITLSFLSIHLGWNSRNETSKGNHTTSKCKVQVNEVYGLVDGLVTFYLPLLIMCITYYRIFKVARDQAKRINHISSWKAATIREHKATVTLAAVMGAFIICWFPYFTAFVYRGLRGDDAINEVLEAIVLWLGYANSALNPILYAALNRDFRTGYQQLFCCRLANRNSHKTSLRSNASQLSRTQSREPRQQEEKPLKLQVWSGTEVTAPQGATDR
Procedure: (§1) Blood cell counts, kinase profiler, safety screen, bacterial cytotoxicity, Ames, micronucleus assays were performed by the company Eurofins (France). The kinase profiler was performed by the company Eurofins (Discovery, Panlab and Cerep).

Opiate µ(OP3, MOP) = Opiate µ(OP3, MOP) (Homo sapiens, UniProt P35372); assay: Safety screen; type: binding
Procedure: as §1

Aurora-B(h) = Aurora-B(h) (Homo sapiens, UniProt Q96GD4); assay: Kinase Profiler; type: biochemical
Procedure: as §1

Bmx(h) = Bmx(h) (Homo sapiens, UniProt P51813); assay: Kinase Profiler; type: biochemical
Procedure: as §1

CK1ε(h) = CK1ε(h) (Homo sapiens, UniProt P49674); assay: Kinase Profiler; type: biochemical
Procedure: as §1

EGFR(L861Q)(h) = EGFR(L861Q)(h) (Homo sapiens, UniProt P00533, L861Q); assay: Kinase Profiler; type: biochemical
Procedure: (§2) The kinase profiler was performed by the company Eurofins (Discovery, Panlab and Cerep).

EphA3(h) = EphA3(h) (Homo sapiens, UniProt P29320); assay: Kinase Profiler; type: biochemical
Sequence of EphA3(h) (P29320 21-983): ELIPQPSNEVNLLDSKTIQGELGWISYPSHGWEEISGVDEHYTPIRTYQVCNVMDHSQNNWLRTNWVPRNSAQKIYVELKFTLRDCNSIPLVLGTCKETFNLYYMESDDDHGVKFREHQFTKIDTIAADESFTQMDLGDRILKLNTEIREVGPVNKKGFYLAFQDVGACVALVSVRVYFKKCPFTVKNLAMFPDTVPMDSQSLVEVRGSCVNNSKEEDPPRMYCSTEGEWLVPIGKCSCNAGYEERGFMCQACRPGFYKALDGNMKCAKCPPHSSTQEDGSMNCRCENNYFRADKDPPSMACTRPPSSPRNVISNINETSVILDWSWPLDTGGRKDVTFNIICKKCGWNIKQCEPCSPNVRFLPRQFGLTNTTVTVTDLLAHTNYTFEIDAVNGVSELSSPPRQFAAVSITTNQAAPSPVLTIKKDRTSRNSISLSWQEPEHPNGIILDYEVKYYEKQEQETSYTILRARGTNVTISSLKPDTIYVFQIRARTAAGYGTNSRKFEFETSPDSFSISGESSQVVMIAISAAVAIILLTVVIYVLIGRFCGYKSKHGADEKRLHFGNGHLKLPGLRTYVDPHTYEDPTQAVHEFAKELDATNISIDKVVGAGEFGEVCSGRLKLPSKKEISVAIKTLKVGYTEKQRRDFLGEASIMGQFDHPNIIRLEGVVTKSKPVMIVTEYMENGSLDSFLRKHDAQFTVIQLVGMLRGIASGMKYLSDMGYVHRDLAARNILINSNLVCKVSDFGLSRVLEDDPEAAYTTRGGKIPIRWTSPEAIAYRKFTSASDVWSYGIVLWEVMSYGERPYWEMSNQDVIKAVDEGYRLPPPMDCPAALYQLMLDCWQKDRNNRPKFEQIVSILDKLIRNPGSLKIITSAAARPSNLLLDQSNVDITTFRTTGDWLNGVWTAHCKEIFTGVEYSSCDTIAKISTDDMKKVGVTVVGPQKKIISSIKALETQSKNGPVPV
Procedure: as §1

Flt3(h) = Flt3(h) (Homo sapiens, UniProt P36888); assay: Kinase Profiler; type: biochemical
Procedure: as §2

Fyn(h) = Fyn(h) (Homo sapiens, UniProt P06241); assay: Kinase Profiler; type: biochemical
Procedure: as §2

JNK2α2(h) = JNK2α2(h) (Homo sapiens, UniProt P45984); assay: Kinase Profiler; type: biochemical
Sequence of JNK2α2(h) (P45984 whole entry): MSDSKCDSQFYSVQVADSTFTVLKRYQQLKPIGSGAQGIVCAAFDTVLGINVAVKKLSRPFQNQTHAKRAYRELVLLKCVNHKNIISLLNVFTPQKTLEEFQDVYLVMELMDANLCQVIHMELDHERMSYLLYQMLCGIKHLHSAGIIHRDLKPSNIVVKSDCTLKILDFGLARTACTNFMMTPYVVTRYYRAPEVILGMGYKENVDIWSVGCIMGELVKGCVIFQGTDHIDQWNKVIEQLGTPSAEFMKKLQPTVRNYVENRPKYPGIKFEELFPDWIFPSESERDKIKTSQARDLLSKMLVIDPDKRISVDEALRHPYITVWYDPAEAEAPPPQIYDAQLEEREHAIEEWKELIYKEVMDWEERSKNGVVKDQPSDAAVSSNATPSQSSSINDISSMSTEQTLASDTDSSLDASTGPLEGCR
Procedure: as §2

MAPK2(m) = MAPK2(m) (Mus musculus, UniProt P63085); assay: Kinase Profiler; type: biochemical
Procedure: as §2

MAP4K5(h) = MAP4K5(h) (Homo sapiens, UniProt Q9Y4K4); assay: Kinase Profiler; type: biochemical
Procedure: as §2

MAPKAP-K3(h) = MAPKAP-K3(h) (Homo sapiens, UniProt Q16644); assay: Kinase Profiler; type: biochemical
Procedure: as §2

MEKK2(h) = MEKK2(h) (Homo sapiens, UniProt Q9Y2U5); assay: Kinase Profiler; type: biochemical
Sequence of MEKK2(h) (Q9Y2U5 whole entry): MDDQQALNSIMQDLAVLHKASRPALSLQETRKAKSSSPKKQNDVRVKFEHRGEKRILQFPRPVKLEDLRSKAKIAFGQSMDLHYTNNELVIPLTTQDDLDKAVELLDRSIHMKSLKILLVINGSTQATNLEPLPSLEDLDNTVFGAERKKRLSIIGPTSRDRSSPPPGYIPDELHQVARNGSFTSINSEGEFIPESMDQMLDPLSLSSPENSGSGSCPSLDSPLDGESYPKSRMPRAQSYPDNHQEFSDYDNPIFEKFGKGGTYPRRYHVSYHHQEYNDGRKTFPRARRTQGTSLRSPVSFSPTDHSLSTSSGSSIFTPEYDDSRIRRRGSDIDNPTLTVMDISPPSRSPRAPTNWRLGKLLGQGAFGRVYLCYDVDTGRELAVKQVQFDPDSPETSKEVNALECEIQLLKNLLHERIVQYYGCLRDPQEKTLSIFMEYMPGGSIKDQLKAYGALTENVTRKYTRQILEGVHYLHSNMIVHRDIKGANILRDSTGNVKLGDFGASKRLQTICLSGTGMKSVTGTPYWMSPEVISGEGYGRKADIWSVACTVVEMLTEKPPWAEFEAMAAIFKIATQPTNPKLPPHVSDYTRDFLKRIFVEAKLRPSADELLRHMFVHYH
Procedure: as §2

PKAcβ(h) = PKAcβ(h) (Homo sapiens, UniProt P22694); assay: Kinase Profiler; type: biochemical
Procedure: as §1

PKCθ(h) = PKCθ(h) (Homo sapiens, UniProt Q04759); assay: Kinase Profiler; type: biochemical
Procedure: as §2

Ret (V804L)(h) = Ret (V804L)(h) (Homo sapiens, UniProt P07949, V804L); assay: Kinase Profiler; type: biochemical
Procedure: as §2

Rse(h) = Rse(h) (Homo sapiens, UniProt Q06418); assay: Kinase Profiler; type: biochemical
Procedure: as §2

SIK3(h) = SIK3(h) (Homo sapiens, UniProt Q9Y2K2); assay: Kinase Profiler; type: biochemical
Sequence of SIK3(h) (Q9Y2K2 whole entry): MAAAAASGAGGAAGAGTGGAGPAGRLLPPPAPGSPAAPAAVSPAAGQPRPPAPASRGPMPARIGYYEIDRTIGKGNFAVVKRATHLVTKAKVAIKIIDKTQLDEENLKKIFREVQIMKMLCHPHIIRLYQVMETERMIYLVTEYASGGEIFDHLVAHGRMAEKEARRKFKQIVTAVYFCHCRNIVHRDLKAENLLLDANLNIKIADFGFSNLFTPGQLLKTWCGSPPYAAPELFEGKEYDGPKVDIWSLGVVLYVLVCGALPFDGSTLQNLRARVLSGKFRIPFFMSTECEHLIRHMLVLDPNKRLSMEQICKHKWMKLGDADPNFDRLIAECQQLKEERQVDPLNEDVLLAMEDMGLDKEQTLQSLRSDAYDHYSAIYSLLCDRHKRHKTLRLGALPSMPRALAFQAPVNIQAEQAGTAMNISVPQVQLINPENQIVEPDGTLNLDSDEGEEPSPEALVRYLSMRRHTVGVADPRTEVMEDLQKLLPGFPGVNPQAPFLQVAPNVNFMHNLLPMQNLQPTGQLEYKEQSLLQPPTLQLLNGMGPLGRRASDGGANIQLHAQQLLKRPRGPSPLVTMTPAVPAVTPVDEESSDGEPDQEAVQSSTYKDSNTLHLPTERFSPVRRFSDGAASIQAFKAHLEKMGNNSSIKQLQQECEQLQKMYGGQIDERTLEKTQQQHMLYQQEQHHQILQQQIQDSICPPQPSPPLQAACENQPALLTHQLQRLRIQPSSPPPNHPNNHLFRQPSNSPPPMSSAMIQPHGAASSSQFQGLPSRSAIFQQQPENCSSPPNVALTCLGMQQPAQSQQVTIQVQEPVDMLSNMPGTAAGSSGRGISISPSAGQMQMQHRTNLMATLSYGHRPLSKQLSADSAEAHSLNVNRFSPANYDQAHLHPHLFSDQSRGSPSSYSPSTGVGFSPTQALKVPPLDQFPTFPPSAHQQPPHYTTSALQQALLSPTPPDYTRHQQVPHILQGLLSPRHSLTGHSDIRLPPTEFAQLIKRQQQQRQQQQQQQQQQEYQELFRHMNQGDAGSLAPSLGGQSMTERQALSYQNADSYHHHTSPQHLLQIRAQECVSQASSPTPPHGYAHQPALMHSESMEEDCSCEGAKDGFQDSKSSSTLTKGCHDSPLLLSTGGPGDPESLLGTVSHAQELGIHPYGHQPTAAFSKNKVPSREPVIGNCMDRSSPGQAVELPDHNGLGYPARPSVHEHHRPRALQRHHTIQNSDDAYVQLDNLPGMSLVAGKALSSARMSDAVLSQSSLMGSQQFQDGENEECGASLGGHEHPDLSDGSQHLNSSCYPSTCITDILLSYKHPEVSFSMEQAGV
Procedure: as §2

Tie2(Y897S)(h) = Tie2(Y897S)(h) (Homo sapiens, UniProt Q02763, Y897S); assay: Kinase Profiler; type: biochemical
Procedure: as §2

TrkB(h) = TrkB(h) (Homo sapiens, UniProt Q16620); assay: Kinase Profiler; type: biochemical
Sequence of TrkB(h) (Q16620 32-822): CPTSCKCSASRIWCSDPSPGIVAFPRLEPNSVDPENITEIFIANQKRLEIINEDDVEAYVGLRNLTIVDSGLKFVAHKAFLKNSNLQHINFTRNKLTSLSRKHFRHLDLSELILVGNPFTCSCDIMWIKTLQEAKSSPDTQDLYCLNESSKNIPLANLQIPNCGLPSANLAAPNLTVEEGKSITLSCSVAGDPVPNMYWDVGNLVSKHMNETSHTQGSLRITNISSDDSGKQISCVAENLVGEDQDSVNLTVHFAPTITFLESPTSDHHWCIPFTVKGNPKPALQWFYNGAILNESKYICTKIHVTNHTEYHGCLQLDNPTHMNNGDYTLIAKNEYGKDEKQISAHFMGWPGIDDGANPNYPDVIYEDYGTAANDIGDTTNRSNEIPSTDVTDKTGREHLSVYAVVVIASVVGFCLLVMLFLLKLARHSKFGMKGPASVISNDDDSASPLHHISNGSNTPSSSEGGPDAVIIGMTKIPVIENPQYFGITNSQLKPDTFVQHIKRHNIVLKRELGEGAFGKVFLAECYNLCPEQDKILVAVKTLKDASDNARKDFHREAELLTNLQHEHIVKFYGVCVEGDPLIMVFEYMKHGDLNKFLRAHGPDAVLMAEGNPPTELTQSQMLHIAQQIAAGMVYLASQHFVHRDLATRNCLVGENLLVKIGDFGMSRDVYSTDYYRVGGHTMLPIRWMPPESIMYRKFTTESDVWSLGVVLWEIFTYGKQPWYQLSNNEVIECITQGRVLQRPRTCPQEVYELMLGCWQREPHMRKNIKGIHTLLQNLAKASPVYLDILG
Procedure: as §2

TTK(h) = TTK(h) (Homo sapiens, UniProt P33981); assay: Kinase Profiler; type: biochemical
Procedure: as §2

ULK3(h) = ULK3(h) (Homo sapiens, UniProt Q6PHR2); assay: Kinase Profiler; type: biochemical
Sequence of ULK3(h) (Q6PHR2 whole entry): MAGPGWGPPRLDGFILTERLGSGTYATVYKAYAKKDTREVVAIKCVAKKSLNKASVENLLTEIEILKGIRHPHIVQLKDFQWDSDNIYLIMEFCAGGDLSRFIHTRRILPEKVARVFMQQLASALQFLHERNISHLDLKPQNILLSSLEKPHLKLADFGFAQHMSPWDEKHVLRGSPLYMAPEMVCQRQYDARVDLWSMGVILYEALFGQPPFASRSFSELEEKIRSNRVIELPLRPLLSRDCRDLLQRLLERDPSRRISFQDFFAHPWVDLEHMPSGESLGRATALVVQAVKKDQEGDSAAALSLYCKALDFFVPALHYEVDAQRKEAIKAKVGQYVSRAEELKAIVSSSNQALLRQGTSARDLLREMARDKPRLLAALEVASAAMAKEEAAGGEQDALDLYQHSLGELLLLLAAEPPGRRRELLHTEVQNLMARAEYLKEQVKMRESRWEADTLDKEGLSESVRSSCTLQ
Procedure: as §1

PIP5K1a(h) = PIP5K1a(h) (Homo sapiens, UniProt Q99755); assay: Kinase Profiler; type: biochemical
Procedure: as §2

## COc1ccc(OC)c(NS(=O)(=O)c2ccc(NC(=O)CCSc3ccc(C)cc3)cc2)c1 [Compound A41]
NIH/3T3 cell migration
  cell migration: efficiently inhibited both functions
TA1535; - S9, 1.0E-04 M
  Count Positive (# of wells): 0
TA1535; - S9, 1.0E-05 M
  Count Positive (# of wells): 2
TA1535; - S9, 5.0E-05 M
  Count Positive (# of wells): 0
TA1535; - S9, 5.0E-06 M
  Count Positive (# of wells): 0
Histamine H2
  % inh.: -14%
Opiate µ(OP3, MOP)
  % inh.: 14%
Aurora-B(h)
  Activity(%): 86%
Bmx(h)
  Activity(%): 124%
CK1ε(h)
  Activity(%): 108%
EGFR(L861Q)(h)
  Activity(%): 107%
EphA3(h)
  Activity(%): 139%
Flt3(h)
  Activity(%): 98%
Fyn(h)
  Activity(%): 102%
JNK2α2(h)
  Activity(%): 101%
MAPK2(m)
  Activity(%): 108%
MAP4K5(h)
  Activity(%): 102%
MAPKAP-K3(h)
  Activity(%): 112%
MEKK2(h)
  Activity(%): 102%
PKAcβ(h)
  Activity(%): 116%
PKCθ(h)
  Activity(%): 114%
Ret (V804L)(h)
  Activity(%): 93%
Rse(h)
  Activity(%): 102%
SIK3(h)
  Activity(%): 106%
Tie2(Y897S)(h)
  Activity(%): 109%
TrkB(h)
  Activity(%): 108%
TTK(h)
  Activity(%): 103%
ULK3(h)
  Activity(%): 97%
PIP5K1a(h)
  Activity(%): 100%
